Test results from EP1433789A1, “Pyrrolopyrazines and their use as selective apoptosis inducers” (Aponetics AG, priority 2002, dated 2004).

How the values were obtained:
Ramos [1] = assay: AnnexinV/7-AAD staining; type: cell-based, human; settings: 10 µM, 24 h treatment
Description: (§1) Adherent cells (1 - 2*10^5) are 24 h prior to compound treatment seeded into 24 well tissue culture plates. Suspension cells are pipetted into P-tubes immediately before treatment. Test compounds are added leading to a final concentrations of 10 µM. After 24 h treatment cells are harvested (in case of adherent cells by trypsinization) and transferred to FACS tubes (BD Biosciences). After centrifugation and removal of the supernatant, 100 µl complete medium containing AnnexinV-GST (10 µg) is added, mixed and incubated at 4°C for 30 minutes. Subsequently, the cells are washed once with medium and incubated with 100 µl anti-GST Alexa 488 (Molecular Probes A-11131) in medium diluted 1:500 for 30 minutes at 4°C. Then, cells are washed once and stained with 1 µg/ml 7-aminoactinomycin D (7-AAD) (Molecular Probes A-1310) in 250 µl medium and analyzed on the FACSCalibur™. AnnexinV is measured in FL1 whereas 7-AAD is measured in FL3. In Table 5 the percentage of positively stained cells after treatment with the respective compounds are indicated. The following scores are used: Score 0 relates to less than 10%, score 1 relates to more than 10% but less than 50% and score 2 relates to more than 50% positivity.

Jurkat [2] = assay: AnnexinV/7-AAD staining; type: cell-based, human; settings: 10 µM, 24 h treatment
Description: as §1

HeLa [3] = assay: AnnexinV/7-AAD staining; type: cell-based, human; settings: 10 µM, 24 h treatment
Description: as §1

A20 [4] = assay: Hoechst 33342 nuclear staining (Table 3); type: cell-based, mouse; set-up: key: 0 relating to no activity; 1 relating to weak activity comprising less than 50% of the cells; score 2 relating to strong activity comprising more than 50% of the cells
Description: (§2) This assay is performed in 96 well tissue culture plates. Appropriate number of cells (adherent cells: 3 - 5*10^3, suspension cells: 8 - 10*10^3) are being seeded out in 80 µl complete medium. Adherent cells are incubated for 24 h for proper spreading out before addition of test compounds while suspension cells are immediately treated with test compounds after seeding out. The test compounds are added in 20 µl complete medium containing max 5% DMSO. The final compound concentrations in the assays are 10 µM, 3 µM,1 µM and 0.3 µM, respectively. After 24 h or 48 h incubation at culture conditions, 10 µl medium containing Hoechst 33342 dye (Sigma B-2261) at 2-5 µg/ml are added to each well. The assay plates are then further incubated for 30 minutes and subsequently analyzed with a standard inverted fluorescence microscope. The readout allows the determination of the fraction of apoptotic nuclei as well as other morphological criteria specific for apoptosis as a function of the treatment. The following scores are used: 0 relating to no activity, 1 relating to weak activity comprising less than 50% of the cells and score 2 relating to strong activity comprising more than 50% of the cells.

A20 [5] = assay: AnnexinV/7-AAD staining; type: cell-based, mouse; settings: A20, 10 µM, 24 h treatment
Description: as §1

Ramos [6] = assay: Hoechst 33342 nuclear staining (Table 3); type: cell-based, human; set-up: key: 0 relating to no activity; 1 relating to weak activity comprising less than 50% of the cells; score 2 relating to strong activity comprising more than 50% of the cells; settings: 24h
Description: as §2

Jurkat [7] = assay: Hoechst 33342 nuclear staining (Table 3); type: cell-based, human; set-up: key: 0 relating to no activity; 1 relating to weak activity comprising less than 50% of the cells; score 2 relating to strong activity comprising more than 50% of the cells
Description: as §2

HeLa [8] = assay: Hoechst 33342 nuclear staining (Table 3); type: cell-based, human; set-up: key: 0 relating to no activity; 1 relating to weak activity comprising less than 50% of the cells; score 2 relating to strong activity comprising more than 50% of the cells
Description: as §2

K562 = assay: Hoechst 33342 nuclear staining (Table 3); type: cell-based, human; set-up: key: 0 relating to no activity; 1 relating to weak activity comprising less than 50% of the cells; score 2 relating to strong activity comprising more than 50% of the cells
Description: as §2

Question: For CC1(C)Cc2ccccc2-c2c(C=O)c3nc4ccccc4nc3n21 [No. 3, 6,6-Dimethyl-5,6-dihydro-6a,7,12-triaza-dibenzo[a,h]fluorene-13-carbaldehyde], which “percentage of positively stained cells (AnnexinV/7-AAD staining)” value (shortened to “percentage of positively stained cells”) (Ramos [1]) is on record?
Answer: 2 (score 2 relates to more than 50% positivity)

Question: And the “percentage of positively stained cells” value (Jurkat [2])?
Answer: 2 (score 2 relates to more than 50% positivity)

Question: And the “percentage of positively stained cells” value (HeLa [3])?
Answer: 1 (score 1 relates to more than 10% but less than 50%)

Question: And the “Hoechst 33342 nuclear staining” value (A20 [4]; A20, 24h, conc 0.3 (µM))?
Answer: 0

Question: And the “Hoechst 33342 nuclear staining” value (A20 [4]; A20, 24h, conc 1 (µM))?
Answer: 0

Question: And the “Hoechst 33342 nuclear staining” value (A20 [4]; A20, 24h, conc 3 (µM))?
Answer: 0

Question: What about the “Hoechst 33342 nuclear staining” value (A20 [4]; A20, 24h, conc 10 (µM)) of the same molecule?
Answer: 0

Question: And the “Hoechst 33342 nuclear staining” value (A20 [4]; A20, 48h, conc 0.3 (µM))?
Answer: 0

Question: And the “Hoechst 33342 nuclear staining” value (A20 [4]; A20, 48h, conc 1 (µM))?
Answer: 0

Question: And the “Hoechst 33342 nuclear staining” value (A20 [4]; A20, 48h, conc 3 (µM))?
Answer: 0

Question: And the “Hoechst 33342 nuclear staining” value (A20 [4]; A20, 48h, conc 10 (µM))?
Answer: 0

Question: And the “percentage of positively stained cells” value (A20 [5])?
Answer: 1 (score 1 relates to more than 10% but less than 50%)

Question: What about the “Hoechst 33342 nuclear staining” value (Ramos [6]; conc 0.3 (µM)) of the same molecule?
Answer: 0

Question: And the “Hoechst 33342 nuclear staining” value (Ramos [6]; conc 1 (µM))?
Answer: 0

Question: And the “Hoechst 33342 nuclear staining” value (Ramos [6]; conc 3 (µM))?
Answer: 0

Question: What about the “Hoechst 33342 nuclear staining” value (Ramos [6]; conc 10 (µM)) of the same molecule?
Answer: 0

Question: What about the “Hoechst 33342 nuclear staining” value (Jurkat [7]; 24h, conc 0.3 (µM)) of the same molecule?
Answer: 0

Question: What about the “Hoechst 33342 nuclear staining” value (Jurkat [7]; 24h, conc 1 (µM)) of the same molecule?
Answer: 0

Question: And the “Hoechst 33342 nuclear staining” value (Jurkat [7]; 24h, conc 3 (µM))?
Answer: 0

Question: And the “Hoechst 33342 nuclear staining” value (Jurkat [7]; 24h, conc 10 (µM))?
Answer: 0

Question: What about the “Hoechst 33342 nuclear staining” value (Jurkat [7]; 48h, conc 0.3 (µM)) of the same molecule?
Answer: 0

Question: What about the “Hoechst 33342 nuclear staining” value (Jurkat [7]; 48h, conc 1 (µM)) of the same molecule?
Answer: 0

Question: And the “Hoechst 33342 nuclear staining” value (Jurkat [7]; 48h, conc 3 (µM))?
Answer: 0

Question: And the “Hoechst 33342 nuclear staining” value (Jurkat [7]; 48h, conc 10 (µM))?
Answer: 2 (score 2 relating to strong activity comprising more than 50% of the cells)

Question: What about the “Hoechst 33342 nuclear staining” value (HeLa [8]; 24h, conc 0.3 (µM)) of the same molecule?
Answer: 0

Question: And the “Hoechst 33342 nuclear staining” value (HeLa [8]; 24h, conc 1 (µM))?
Answer: 0

Question: What about the “Hoechst 33342 nuclear staining” value (HeLa [8]; 24h, conc 3 (µM)) of the same molecule?
Answer: 0

Question: And the “Hoechst 33342 nuclear staining” value (HeLa [8]; 24h, conc 10 (µM))?
Answer: 0

Question: And the “Hoechst 33342 nuclear staining” value (HeLa [8]; 48h, conc 0.3 (µM))?
Answer: 0

Question: And the “Hoechst 33342 nuclear staining” value (HeLa [8]; 48h, conc 1 (µM))?
Answer: 0

Question: And the “Hoechst 33342 nuclear staining” value (HeLa [8]; 48h, conc 3 (µM))?
Answer: 0

Question: What about the “Hoechst 33342 nuclear staining” value (HeLa [8]; 48h, conc 10 (µM)) of the same molecule?
Answer: 1 (1 relating to weak activity comprising less than 50% of the cells)

Question: And the “Hoechst 33342 nuclear staining” value (K562; K562, 24h, conc 0.3 (µM))?
Answer: 0

Question: What about the “Hoechst 33342 nuclear staining” value (K562; K562, 24h, conc 1 (µM)) of the same molecule?
Answer: 0

Question: And the “Hoechst 33342 nuclear staining” value (K562; K562, 24h, conc 3 (µM))?
Answer: 0

Question: And the “Hoechst 33342 nuclear staining” value (K562; K562, 24h, conc 10 (µM))?
Answer: 0

Question: What about the “Hoechst 33342 nuclear staining” value (K562; K562, 48h, conc 0.3 (µM)) of the same molecule?
Answer: 0

Question: And the “Hoechst 33342 nuclear staining” value (K562; K562, 48h, conc 1 (µM))?
Answer: 0

Question: What about the “Hoechst 33342 nuclear staining” value (K562; K562, 48h, conc 3 (µM)) of the same molecule?
Answer: 1 (1 relating to weak activity comprising less than 50% of the cells)

Question: And the “Hoechst 33342 nuclear staining” value (K562; K562, 48h, conc 10 (µM))?
Answer: 1 (1 relating to weak activity comprising less than 50% of the cells)
